From publication PMC10532587, “An Investigation of Structure–Activity Relationships and Cell Death Mechanisms of the Marine Alkaloids Discorhabdins in Merkel Cell Carcinoma Cells” (Marine Drugs, 2023)
Like-named read-outs stand apart in the source and are kept apart here.

Legend:
HaCaT = assay: Cell survival by CellTiterGlo, control cells; type: cell-based, human; conditions: for IC50: Homo sapiens, HaCaT; for AUC (arbitrary units) HaCaT: area under the dose-response curve, control cells
MCC13 = assay: Cell survival by CellTiterGlo, VN-MCC line MCC13; type: cell-based; conditions: for IC50: CellTiterGlo, normalized to DMSO; for AUC (arbitrary units) MCC13: area under the dose-response curve
MCC26 = assay: Cell survival by CellTiterGlo, VN-MCC line MCC26; type: cell-based; conditions: for IC50: CellTiterGlo, normalized to DMSO; for AUC (arbitrary units) MCC26: area under the dose-response curve
UISO = assay: Cell survival by CellTiterGlo, VN-MCC line UISO; type: cell-based; conditions: for IC50: CellTiterGlo, normalized to DMSO; for AUC (arbitrary units) UISO: area under the dose-response curve
MKL-1 = assay: Cell survival by CellTiterGlo, VP-MCC line MKL-1; type: cell-based; conditions: VP-MCC; for IC50: MKL-1, CellTiterGlo, normalized to DMSO, read-out: IC50 (nM) MKL-1; for AUC (arbitrary units) MKL-1: area under the dose-response curve
MKL-2 = assay: Cell survival by CellTiterGlo, VP-MCC line MKL-2; type: cell-based; conditions: for IC50: CellTiterGlo, normalized to DMSO; for AUC (arbitrary units) MKL-2: area under the dose-response curve
Waga = assay: Cell survival by CellTiterGlo, VP-MCC line Waga; type: cell-based; conditions: for IC50: CellTiterGlo, normalized to DMSO; for AUC (arbitrary units) WaGa: area under the dose-response curve
[1] = test system: control (HaCaT) and Merkel cell carcinoma cell lines; assay: Cell survival by CellTiterGlo, all seven cell lines; type: cell-based; conditions: MCC and control cell lines
Procedure: (§1) Three methods were employed for assessment of MCC and control cell survival/viability after discorhabdin treatment, two metabolic assays and a cell permeability assay. For all three methods, cells were plated in 384-well plates at 2500 cells/well and treated with various concentrations of discorhabdins for various time periods. CellTiterGlo^TM (Promega, Madison, WI, USA) measures cellular ATP content and was used to estimate potency of discorhabdins in cell viability assays as previously described. Continuous monitoring of metabolic activity was accomplished using a cellular reducing potential luminescence assay, the RealTime-Glo^TM MT Cell Viability Assay (Promega, Madison, WI, USA) according to manufacturer’s instructions. Loss of cell plasma membrane integrity was assessed using a cell-impermeant molecule that becomes fluorescent upon binding DNA [82] in parallel with apoptosis detection per manufacturer’s instructions (RealTimeGlo^TM Annexin V Apoptosis and Necrosis Assay-Promega). Two additional assays of apoptotic cell death were also used. Caspase activation in response to treatment of MCC cells by discorhabdins or bortezomib (as a positive control) was measured using the CaspaseGlo® 3/7 Assay (Promega, Madison, WI, USA) according to the manufacturer’s instructions at multiple time points. Inhibition of apoptotic cell death was investigated using pre-treatment of cells with for 1 h with the pan-caspase inhibitor Z-VAD-FMK (Enzo Life Sciences, Farmingdale, NY, USA) followed by treatment with discorhabdins or bortezomib and estimation of cell viability as outlined above.
(§2) In order to compare responses among all of the discorhabdins and cell lines (98 combinations), dose–response curves were generated using identical discorhabdin dilution series. GraphPad Prism 8 (San Diego, CA, USA) software was utilized to graph dose–response data and to calculate IC50 values and area under the dose–response curves (AUC) along with 95% confidence interval estimates using four-parameter logistic nonlinear regression analysis. For further analysis and comparisons, AUC for each cell line/discorhabdin pair was visualized in a heatmap generated in R version 1.3.1073 (R Core Team (2013). R: A language and environment for statistical computing. R Foundation for Statistical Computing, Vienna, Austria, http://www.R-project.org/ (accessed on 12 January 2023).
Figure S39: Activity of discorhabdins against M CC cell lines.
The indicated discorh abd ins were ass essed for th eir ability to affect surviv al of control (H aCaT) and Merkel cell carcino ma cell lines (VN-MCC: MCC13, MCC26, UISO and VP -MCC: MKL-1, MKL-2, Wag a). Cells were plat ed at 2500 cells/well and compounds the next day. Cell survival was estimated by CellTiterGlo (normalized to untreated (DMSO) cells on the same plate). Structures w ere o btained from the supplier and/or the PubChem database or as described in the text. Number in bold in ( ) refers to structures in Figure 1 in the text. Curves were plotted and IC50 values and 95% confidence interval calculated by GraphPad software. […]

MCC cell lines = assay: Cell survival by CellTiterGlo, MCC cell lines together; type: cell-based; conditions: for averaged potency (IC50) across all MCC cell lines tested: average over MCC cell lines
Procedure: as §1, §2

[2] = test system: VP-MCC cell lines (MKL-1, MKL-2, and Waga); assay: Selectivity VP-MCC versus control cells (average AUC); type: cell-based
Source text: as §2
Figure S41: Discorhabdi nselectivity
Discorhabdin selectivity for VP -MCC and VN- MCCcells was estimated by comparison of activity (average AUC) for each dis corhabdin against VP -MCC (panel A) or VN- MCC (panel B) cell lines compared to control cells . Discorhabdins were sort ed by selectivity from most to least selective. - fold dif fer ence = (av e VN -MCC or VP -MCC AUC/ control AUC). Error bars […]
(1 picture or pasted object on this page, not shown here)

caspase-3/7 [3] = assay: Caspase-3/7 activation (CaspaseGlo 3/7) in UISO cells; type: cell-based; conditions: 8 or 24 h; normalized to DMSO control
Procedure: (§3) (a) Caspase activation. Cells were treated for 8 or 24 h with indicated discorhabdins or bortezomib. Caspase-3/7 activity was determined (Promega CaspaseGLO-3/7) and normalized to untreated (DMSO) control cells. Error bars represent sd (n = 4). (b). Apoptosis/necrosis. Cells were treated for up to 24 h with the indicated discorhabdins and assessed for Annexin binding and cell permeability using the Promega RealTime-Glo™ Annexin V Apoptosis and Necrosis Assay kit. Luminescence indicates Annexin binding, fluorescence indicates membrane permeability.
as §1, with “Inhibition of apoptotic cell death was investigated using pre-treatment of cells with for 1 h with the pan-caspase inhibitor Z-VAD-FMK (Enzo Life Sciences, Farmingdale, NY, USA) followed by treatment with discorhabdins or bortezomib and estimation of cell viability as outlined above.” left out

caspase-3/7 [4] = assay: Caspase-3/7 activation (CaspaseGlo 3/7) in MKL-1 cells; type: cell-based; conditions: 8 or 24 h; normalized to DMSO control
Procedure: as §3
as §1, with “Inhibition of apoptotic cell death was investigated using pre-treatment of cells with for 1 h with the pan-caspase inhibitor Z-VAD-FMK (Enzo Life Sciences, Farmingdale, NY, USA) followed by treatment with discorhabdins or bortezomib and estimation of cell viability as outlined above.” left out

UISO cells = assay: Mitochondrial membrane potential (JC-10) in UISO cells; type: cell-based; conditions: 10 µM, normalized to DMSO control
Procedure: (§4) Cells were treated with the indicated discorhabdins (10 µM) and assessed for mitochondrial membrane potential (MMP) using JC-10 ratiometric dye. JC-10 was added for the last hour of incubation. Cellular reducing potential was assessed using a RealTimeGlo MT Cell Viability kit, and cellular ATP levels using CellTiterGlo. All values were normalized to DMSO control. Error bars (n = 3–4) represent sd. See Figures S45 and S46 for additional cell line/discorhabdin combinations, concentrations, and time points for reducing potential and MMP, respectively.
(§5) Mitochondrial membrane potential (MMP) was assessed using the JC-10 ratiometric dye (Sigma, St. Louis, MO, USA). UISO or MKL-1 cells were treated in black-walled, clear-bottom 384-well plates (Corning Life Sciences, Durham, NC, USA) with discorhabdins or doxorubicin (Sigma, St. Louis, MO, USA) as a positive control for up to 24 h with JC-10 for the last 1 h of incubation. Red/green fluorescence signals were measured, the red/green ratio for each well was calculated and normalized to untreated (DMSO) control wells for the same cell line and incubation time to determine relative MMP.

MKL-1 cells = assay: Mitochondrial membrane potential (JC-10) in MKL-1 cells; type: cell-based; conditions: 10 µM, normalized to DMSO control
Procedure: as §4, §5

MCC cells [5] = assay: Cellular reducing potential (RealTime-Glo MT Cell Viability); type: cell-based; conditions: 10 µM; normalized to DMSO control
Procedure: as §4
(§6) Three methods were employed for assessment of MCC and control cell survival/viability after discorhabdin treatment, two metabolic assays and a cell permeability assay. For all three methods, cells were plated in 384-well plates at 2500 cells/well and treated with various concentrations of discorhabdins for various time periods. […] Continuous monitoring of metabolic activity was accomplished using a cellular reducing potential luminescence assay, the RealTime-Glo^TM MT Cell Viability Assay (Promega, Madison, WI, USA) according to manufacturer’s instructions. Loss of cell plasma membrane integrity was assessed using a cell-impermeant molecule that becomes fluorescent upon binding DNA [82] in parallel with apoptosis detection per manufacturer’s instructions (RealTimeGlo^TM Annexin V Apoptosis and Necrosis Assay-Promega). […]

MCC cells [6] = assay: Cellular ATP content (CellTiterGlo), time course; type: cell-based; conditions: 10 µM, normalized to DMSO control
Procedure: as §4, §6

[7] = prostate cancer xenograft model; cited from earlier work
caspase-3 = test system: caspase-3; set-up: method as in PMID 9917313; conditions: cited from earlier work
MCC cells [8] = assay: Cell death after pretreatment with pan-caspase inhibitor Z-VAD-FMK; type: cell-based; conditions: Z-VAD-FMK 40 µM, 1 h pretreatment; discorhabdins 10 µM, bortezomib 1 µM
Procedure: as §1, with “Inhibition of apoptotic cell death was investigated using pre-treatment of cells with for 1 h with the pan-caspase inhibitor Z-VAD-FMK (Enzo Life Sciences, Farmingdale, NY, USA) followed by treatment with discorhabdins or bortezomib and estimation of cell viability as outlined above.” left out

[9] = control skin cell line, CellTiterGlo, normalized to DMSO, read-out: IC50 (nM) HaCaT

O=C1C=C2S[C@H]3C[C@]2(C=C1Br)C1=C(N3)C(=O)c2[nH]cc3c2C1=NCC3 [Compound 2, (+)-(6S,8S) discorhabdin B]
IC50 (HaCaT; [9]): 1040 nM | IC50 (HaCaT; read-out: IC50 for control cells): ≤ 1000 nM | AUC (arbitrary units) HaCaT (HaCaT): 133.9 arbitrary units | IC50 (MCC13): 426 nM | AUC (arbitrary units) MCC13 (MCC13): 51.68 arbitrary units | IC50 (MCC26): 731 nM | AUC (arbitrary units) MCC26 (MCC26): 83.94 arbitrary units | IC50 (UISO): 331 nM | AUC (arbitrary units) UISO (UISO): 39.51 arbitrary units | IC50 (MKL-1): 25 nM | AUC (arbitrary units) MKL-1 (MKL-1): 3.635 arbitrary units | IC50 (MKL-2): 90 nM | AUC (arbitrary units) MKL-2 (MKL-2): 14.49 arbitrary units | IC50 (Waga): 75 nM | AUC (arbitrary units) WaGa (Waga): 9.624 arbitrary units | activity on cell viability, in words [1]: comparable activity against MCC and control cell lines | averaged potency (IC50) across all MCC cell lines tested (MCC cell lines): sub-micromolar | fold more active than discorhabdin Q (3) against MCC cells (MCC cell lines; comparator discorhabdin Q (3)): > 10 fold | fold more active against MCC cells compared to 3 (MCC cell lines; comparator printed as 3, sentence is about discorhabdin G*/I (4)): 3 fold | increased activity against VP-MCC compared to the control [2]: > 10 fold | caspase-3/7 activation, UISO (caspase-3/7 [3]): lack of caspase-3/7 activation | caspase-3/7 activation, MKL-1 (caspase-3/7 [4]): lack of caspase-3/7 activation | mitochondrial membrane potential (MMP), UISO (UISO cells): significantly reduced | mitochondrial membrane potential (MMP), MKL-1 (MKL-1 cells): significantly reduced | cellular reducing potential (MCC cells [5]): dropped significantly | cellular ATP content (MCC cells [6]): loss of cellular ATP content was dramatic and rapid

O=C1C2=C3C4=[N+](CCc5c[nH]c1c54)[C@@H]1C(=O)C=C4S[C@@H](C[C@@]43[C@H]1O)N2 [Compound 12, (−)-(1R,2S,6R,8S) discorhabdin L]
IC50 (HaCaT; [9]): 2550 nM | AUC (arbitrary units) HaCaT (HaCaT): 290.4 arbitrary units | IC50 (MCC13): 466 nM | AUC (arbitrary units) MCC13 (MCC13): 93.66 arbitrary units | IC50 (MCC26): 1130 nM | AUC (arbitrary units) MCC26 (MCC26): 140.6 arbitrary units | IC50 (UISO): 660 nM | AUC (arbitrary units) UISO (UISO): 103 arbitrary units | IC50 (MKL-1): 83 nM | AUC (arbitrary units) MKL-1 (MKL-1): 13.23 arbitrary units | IC50 (MKL-2): 245 nM | AUC (arbitrary units) MKL-2 (MKL-2): 50.71 arbitrary units | IC50 (Waga): 440 nM | AUC (arbitrary units) WaGa (Waga): 55.36 arbitrary units | averaged potency (IC50) across all MCC cell lines tested (MCC cell lines): sub-micromolar | caspase-3/7 activation, UISO (caspase-3/7 [3]): lack of caspase-3/7 activation | caspase-3/7 activation, MKL-1 (caspase-3/7 [4]): lack of caspase-3/7 activation | mitochondrial membrane potential (MMP), UISO (UISO cells): significantly reduced | mitochondrial membrane potential (MMP), MKL-1 (MKL-1 cells): significantly reduced | cellular reducing potential (MCC cells [5]): dropped significantly | cellular ATP content (MCC cells [6]): loss of cellular ATP content was dramatic and rapid | in vivo toxicity in animals [7]: minimal in vivo toxicity

Cn1cc2c3c1C(=O)C1=C(C3=NCC2)C2(C=C(Br)C(=O)C(Br)=C2)CCN1 [Compound 17, discorhabdin P]
IC50 (HaCaT; [9]): 1260 nM | AUC (arbitrary units) HaCaT (HaCaT): 150.9 arbitrary units | IC50 (MCC13): 499 nM | AUC (arbitrary units) MCC13 (MCC13): 64.76 arbitrary units | IC50 (MCC26): 1210 nM | AUC (arbitrary units) MCC26 (MCC26): 140.1 arbitrary units | IC50 (UISO): 292 nM | AUC (arbitrary units) UISO (UISO): 50.65 arbitrary units | IC50 (MKL-1): 68 nM | AUC (arbitrary units) MKL-1 (MKL-1): 7.146 arbitrary units | IC50 (MKL-2): 87 nM | AUC (arbitrary units) MKL-2 (MKL-2): 17.05 arbitrary units | IC50 (Waga): 106 nM | AUC (arbitrary units) WaGa (Waga): 14.11 arbitrary units | activity on cell viability, in words [1]: more potent than discorhabdin C in all seven cell lines | averaged potency (IC50) across all MCC cell lines tested (MCC cell lines): sub-micromolar | increased activity against VP-MCC compared to the control [2]: > 10 fold | caspase-3 inhibition (caspase-3): reported to inhibit caspase-3

CC(C)C[C@H](NC(=O)[C@H](Cc1ccccc1)NC(=O)c1cnccn1)B(O)O [bortezomib, reference compound]
caspase-3/7 activation, UISO (caspase-3/7 [3]): robustly activates caspase | caspase-3/7 activation, MKL-1 (caspase-3/7 [4]): robustly activates caspase | effect of Z-VAD-FMK pretreatment on induced MCC cell death (MCC cells [8]): reduced bortezomib-induced
